Legend:
[1] = test system: KM12 luc; test: KM12 luc cell proliferation assay (Table 8); format: cell-based; conditions: KM12 luc cells; read-out: KM12 luc IC 50
[2] = target: T1, Tel-TrkC (Homo sapiens, UniProt Q16288); test: Inhibition of proliferation of Ba/F3 cells expressing Tel-TrkC (BaF3/Tel-TrkC); format: cell-based; conditions: read-out: Ba/F3 Tel-TrkC IC 50
T1 construct: The cells also express luciferase as the viability read-out; it is not fused to the kinase; P41212 (Transcription factor ETV6)
T1 sequence (Q16288 whole entry, the tested form may be a part): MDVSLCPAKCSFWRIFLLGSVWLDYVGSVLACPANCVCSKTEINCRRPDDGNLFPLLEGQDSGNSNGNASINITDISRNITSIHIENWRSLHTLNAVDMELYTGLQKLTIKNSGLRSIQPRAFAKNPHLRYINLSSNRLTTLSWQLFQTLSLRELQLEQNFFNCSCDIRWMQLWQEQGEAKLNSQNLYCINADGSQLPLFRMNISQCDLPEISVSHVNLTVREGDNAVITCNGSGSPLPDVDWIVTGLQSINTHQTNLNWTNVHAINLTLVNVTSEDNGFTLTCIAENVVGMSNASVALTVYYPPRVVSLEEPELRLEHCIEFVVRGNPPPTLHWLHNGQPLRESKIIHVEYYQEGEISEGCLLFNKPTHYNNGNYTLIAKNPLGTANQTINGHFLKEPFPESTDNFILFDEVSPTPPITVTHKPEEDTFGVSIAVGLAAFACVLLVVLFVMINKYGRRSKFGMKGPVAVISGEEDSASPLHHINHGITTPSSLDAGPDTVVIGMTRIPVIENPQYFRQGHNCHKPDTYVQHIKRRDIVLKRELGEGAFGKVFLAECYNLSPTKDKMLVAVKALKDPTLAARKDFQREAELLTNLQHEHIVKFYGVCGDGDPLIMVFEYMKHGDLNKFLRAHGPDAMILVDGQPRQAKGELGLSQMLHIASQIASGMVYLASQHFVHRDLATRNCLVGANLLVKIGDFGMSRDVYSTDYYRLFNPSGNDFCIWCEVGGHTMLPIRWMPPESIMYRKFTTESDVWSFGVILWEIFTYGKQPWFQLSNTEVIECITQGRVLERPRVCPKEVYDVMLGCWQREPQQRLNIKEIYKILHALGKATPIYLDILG
Procedure: (§1) Test compounds were dissolved in DMSO (10 mM) and transferred into 1.4 mL flat bottom or V-shaped Matrix tubes carrying a unique 2D matrix chip by individual compound hubs. The numbers of these chips were distinctively linked to the individual compound identification numbers. The stock solutions were stored at −20° C. if not used immediately. For the test procedure the vials were defrosted and identified by a scanner whereby a working sheet is generated that guides the subsequent working steps.
(§2) Compound dilutions were made in 384 well plates. This format enabled the assay of maximally 28 individual test compounds at 12 concentrations (single points) including 2 reference compounds. The dilution protocol included the production of pre-dilution plates, master plates and assay plates: • Compound plates: 30 μL of individual compound (10 mM) DMSO solution including standard compound were transferred into columns 1 and 13 of a 384 well plate. 20 μL of DMSO were added to the rest of the wells and the compounds were serially diluted (1:3) by transferring 10 μL from a well in column 1 or 13 to the next well in column 2 or 14 respectively and successively with the help of a Minitrack robot. • Assay plates: Identical assay plates were then prepared by adding […] each of compound dilutions of the compound plates into 384-well “assay plates”. In the following the compounds were mixed with 50 μL of assays components (cells or enzyme) and tested for their inhibitory activity.
(§3) Compounds of Formula (I) were tested for their antiproliferative effect on Ba/F3 cells expressing either Tel-TrkA, Tel-TrkB or Tel-TrkC and an additional panel of 34 selected diverse kinases activated by fusion to the dimerizing partners Bcr or Tel (Abl, A1K, BMX, EphA3, EphB2, FGFR2, FGFR3, FGFR4, FGR, FLT1, FLT3, FLT4, FMS, IGF1R, InsR, JAK1, JAK2, JAK3, KDR, Kit, Lck, Lyn, MER, MET, PDGFRb, RET, RON, Ros-1, Src, Aurora, TIE2, TYK2, Tie1, ZAP70). The antiproliferative effect of these compounds on the different cell lines and on the non transformed cells were tested at 12 different concentrations of 3-fold serially diluted compounds in 384 well plates as described above (in media lacking IL3). The IC50 values of the compounds the different cell lines were determined from dose response curves.
(§4) The cell line used is the luciferase expressing Ba/F3 murine hematopoietic progenitor cell line transformed with human Tel-TrkA, Tel-TrkB or Tel-TrkC cDNAs (Ba/F3 EN A/B/C). These cells maintained in RPMI/10% fetal bovine serum (RPMI/FCS) supplemented with penicillin 50 mg/mL, streptomycin 50 mg/mL and L-glutamine […]. Untransformed Ba/F3 cells were similarly maintained with the addition 5 ng/ml of murine recombinant IL3. 50 μl of a Ba/F3 or Ba/F3 EN A/B/C cell suspension were plated in Greiner 384 well microplates (white)) at a density of 2000 cells per well. 50 nl of serially diluted test compound (10-0.0001 mM in DMSO solution) is added to each well. The cells were incubated for 48 hours at 37° C., 5% CO2. 25 μl of Bright Glo® (Promega) luciferase substrate is added to each well. The emited luminiscence is quantified using the ACQUEST™ luminescence system (Molecular Devices). IC50 values were calculated by linear regression analysis of the percentage inhibition of each compound at 12 concentrations.

[3] = target: T2, Tel-TrkA (Homo sapiens, UniProt P04629); test: Inhibition of proliferation of Ba/F3 cells expressing Tel-TrkA (BaF3/Tel-TrkA, luciferase/Bright Glo readout); format: cell-based; conditions: read-out: Ba/F3 Tel-TrkA IC 50
T2 construct: dimerization domain of Tel (ETV6) transcription factor (fusion partner, human ETV6 P41212); expressed in transfected cells; host or cells: luciferase expressing Ba/F3 murine hematopoietic progenitor cells; the other entry of the earlier key: ETV6 (P41212, Transcription factor ETV6)
T2 sequence (P04629 510-796 limits assumed): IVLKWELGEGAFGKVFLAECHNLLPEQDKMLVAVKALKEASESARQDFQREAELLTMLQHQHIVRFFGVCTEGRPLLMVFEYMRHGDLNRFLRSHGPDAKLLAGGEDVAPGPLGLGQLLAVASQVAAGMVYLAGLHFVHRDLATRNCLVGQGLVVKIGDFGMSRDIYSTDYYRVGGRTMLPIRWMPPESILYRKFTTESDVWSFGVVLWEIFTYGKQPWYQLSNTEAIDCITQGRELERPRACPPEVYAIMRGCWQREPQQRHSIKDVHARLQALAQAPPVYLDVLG
Procedure: as §1, §2, §3
as §4, with “50 nl of serially diluted test compound (10-0.0001 mM in DMSO solution) is added to each well.” left out

[4] = target: T3, full length rTrkA and mNGF (Rattus norvegicus, UniProt P35739); test: Inhibition of proliferation of Ba/F3 cells co-expressing full length rTrkA and mNGF (BaF3/TrkA-NFG); format: cell-based; conditions: BaF3 TRKA-NGF cells, CTG readout
T3 construct: co-expressing full length rTrkA and mNGF; expressed in transfected cells; host or cells: Ba/F3 cells
T3 sequence (P35739 33-799): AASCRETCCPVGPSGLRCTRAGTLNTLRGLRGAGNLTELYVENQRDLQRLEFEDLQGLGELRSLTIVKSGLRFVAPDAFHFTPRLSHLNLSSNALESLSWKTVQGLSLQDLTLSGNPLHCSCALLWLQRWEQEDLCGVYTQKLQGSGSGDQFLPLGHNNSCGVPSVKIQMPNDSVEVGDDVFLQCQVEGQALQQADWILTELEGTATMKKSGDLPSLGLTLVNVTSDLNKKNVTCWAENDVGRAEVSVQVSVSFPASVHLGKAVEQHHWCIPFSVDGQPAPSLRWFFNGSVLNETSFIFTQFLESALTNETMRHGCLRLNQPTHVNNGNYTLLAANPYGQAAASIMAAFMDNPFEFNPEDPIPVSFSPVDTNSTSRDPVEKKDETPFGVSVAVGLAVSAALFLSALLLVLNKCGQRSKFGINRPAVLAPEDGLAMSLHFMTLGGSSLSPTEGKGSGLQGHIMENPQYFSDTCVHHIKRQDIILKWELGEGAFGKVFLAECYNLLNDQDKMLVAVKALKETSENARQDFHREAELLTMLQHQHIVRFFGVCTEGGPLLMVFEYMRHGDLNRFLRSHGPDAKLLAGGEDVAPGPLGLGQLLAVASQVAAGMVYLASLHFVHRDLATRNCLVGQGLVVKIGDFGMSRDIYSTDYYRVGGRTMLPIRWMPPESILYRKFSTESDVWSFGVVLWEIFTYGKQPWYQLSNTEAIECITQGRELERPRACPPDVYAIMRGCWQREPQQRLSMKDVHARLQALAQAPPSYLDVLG
T3 sequence (P01139 122-241 partner): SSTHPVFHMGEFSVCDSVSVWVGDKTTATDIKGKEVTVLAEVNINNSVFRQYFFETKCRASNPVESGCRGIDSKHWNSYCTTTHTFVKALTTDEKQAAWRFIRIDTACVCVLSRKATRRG

[5] = test system: parental BaF3 cells; test: Proliferation of parental (untransformed) Ba/F3 cells maintained with IL3; format: cell-based, murine; conditions: Mus musculus, BaF3, parental Ba/F3 cells; read-out: Ba/F3 IC 50
Procedure: as §1, §2, §4

[6] = target: T4, Tel-TrkB (Homo sapiens, UniProt Q16620); test: Inhibition of proliferation of Ba/F3 cells expressing Tel-TrkB (BaF3/Tel-TrkB); format: cell-based; conditions: Ba/F3 Tel-TrkB cells; read-out: Ba/F3 Tel-TrkB IC 50
T4 construct: dimerization domain of Tel (ETV6) transcription factor (fusion partner, human ETV6 P41212); expressed in transfected cells; host or cells: luciferase expressing Ba/F3 murine hematopoietic progenitor cells; the other entry of the earlier key: ETV6 (P41212, Transcription factor ETV6)
T4 sequence (Q16620 538-822 limits assumed): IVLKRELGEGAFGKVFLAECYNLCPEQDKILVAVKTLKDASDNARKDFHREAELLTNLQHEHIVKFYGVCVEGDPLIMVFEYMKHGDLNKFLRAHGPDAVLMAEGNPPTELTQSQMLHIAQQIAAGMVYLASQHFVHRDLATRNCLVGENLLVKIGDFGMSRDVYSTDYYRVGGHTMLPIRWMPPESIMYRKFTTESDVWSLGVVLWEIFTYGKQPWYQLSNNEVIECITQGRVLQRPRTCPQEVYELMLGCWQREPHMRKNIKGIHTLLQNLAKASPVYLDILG
Procedure: as §1, §2, §3
as §4, with “50 nl of serially diluted test compound (10-0.0001 mM in DMSO solution) is added to each well.” left out

| SMILES | IC50 [2] [µM] | IC50 [3] [µM] | BaF3 TRKA-NGF CTG IC 50 [4] [µM] | IC50 [6] [µM] | IC50 [1] [µM] | IC50 [5] [µM] |
| --- | --- | --- | --- | --- | --- | --- |
| N#Cc1cccc(-n2cnc3ccc(N4C(=O)CSC4c4cc(F)ccc4F)nc32)c1 (stereo not shown) [Table 1-Compound 5] | 2.61 | 5.67 | 3.58 | 4.17 | 2.29 | > 10 |
| CN(C)c1ccc(-c2cnc3ccc(N4CCCC4c4cc(F)ccc4F)nn23)cc1C#N (stereo not shown) [Table 5-Compound 4] | 0.032 | 0.166 | 0.203 | 0.06 | 0.089 | 5.36 |
| N#Cc1cccc(-n2cnc3ccc(N4CCSC4c4cc(F)ccc4F)nc32)c1 (stereo not shown) [Table 1-Compound 3] | 0.018 | 0.028 | 0.45 | 0.022 | 0.037 | > 10 |
| CN1CCC(Oc2cc(-c3cnc4ccc(N5CCCC5c5cc(F)ccc5F)nn34)ccc2C#N)C1 (stereo not shown) [Table 5-Compound 22] | 0.027 | 0.132 | 0.316 | 0.088 | 0.099 | 2.25 |
| CN(C)CCN(C)c1cc(-c2cnc3ccc(N4CCCC4c4cc(F)ccc4F)nn23)ccc1C#N (stereo not shown) [Table 5-Compound 23] | 0.016 | 0.136 | 0.111 | 0.074 | 0.109 | 3.71 |
| N#Cc1cc(-c2cnc3ccc(N4CCCC4c4cc(F)ccc4F)nn23)ccc1F (stereo not shown) [Table 5-Compound 1] | 0.021 | 0.051 | 0.043 | 0.038 | 0.0092 | 7.66 |
| N#Cc1cc(-c2cnc3ccc(N4CCCC4c4cc(F)ccc4F)nn23)ccc1N1CCOCC1 (stereo not shown) [Table 5-Compound 2] | 0.0084 | 0.026 | 0.049 | 0.015 | 0.029 | 6.17 |
| Fc1cccc(C2COCCN2c2ccc3ncc(-c4cccc(OC5CCNCC5)n4)n3n2)c1 (stereo not shown) [Table 2-Compound 18] |  | 0.036 | 0.056 | 0.036 | 0.022 | > 10 |
| O=C(c1cccc(-c2cnc3ccc(N4CCCC4c4cccc(F)c4)nn23)n1)N1CCC(O)CC1 (stereo not shown) [Table 7-Compound 158] |  | 0.065 | 0.087 | 0.052 | 0.019 | > 11 |
| N#Cc1cc(-c2cnc3ccc(N4CCOCC4c4cccc(F)c4)nn23)ccc1F (stereo not shown) [Table 2-Compound 6] |  | 0.058 | 0.078 | 0.044 | 0.056 | > 10 |

The next compounds have a lower IC50 [3] than those just listed; values first:

| IC50 [2] [µM] | IC50 [3] [µM] | BaF3 TRKA-NGF CTG IC 50 [4] [µM] | IC50 [6] [µM] | SMILES | IC50 [1] [µM] | IC50 [5] [µM] |
| --- | --- | --- | --- | --- | --- | --- |
| 0.0031 | 0.0064 | 0.034 | 0.015 | N#Cc1ccc(-c2cnc3ccc(N4CCCC4c4cc(F)ccc4F)nn23)cc1OCCN1CCOCC1 (stereo not shown) [Table 5-Compound 17] | 0.0088 | > 10 |
| 0.003 | 0.009 | 0.009 | 0.017 | Fc1cccc([C@H]2CCCN2c2ccc3ncc(-c4cccc(N5CCN(c6cccnc6)CC5)n4)n3n2)c1 [Table 7-Compound 255] | 0.006 | > 11 |
|  | 0.003 | 0.008 | 0.003 | O=C(O)C1CN(c2cccc(-c3cnc4ccc(N5CCCC5c5cccc(F)c5)nn34)n2)C1 (stereo not shown) [Table 7-Compound 116] | 0.003 | > 9.1 |
|  | 0.017 | 0.030 | 0.017 | OC1CCN(c2cccc(-c3cnc4ccc(N5CCOCC5c5cccc(F)c5)nn34)n2)CC1 (stereo not shown) [Table 7-Compound 1] | 0.0076 | > 10 |
|  | 0.0081 | 0.0098 | 0.0079 | OC1CCN(c2ccc(-c3cccc(-c4cnc5ccc(N6CCCC6c6cccc(F)c6)nn45)n3)cn2)CC1 (stereo not shown) [Table 7-Compound 61] | 0.004 | > 10 |
|  | 0.0069 | 0.019 | 0.0066 | Cc1cnc(-c2cccc(-c3cnc4ccc(N5CCCC5c5cccc(F)c5)nn34)n2)[nH]1 (stereo not shown) [Table 7-Compound 3] | 0.017 | 3.87 |
|  | 0.003 | 0.004 | 0.003 | CC(=O)N[C@@H]1CCN(c2cccc(-c3cnc4ccc(N5CCCC5c5cccc(F)c5)nn34)n2)C1 (stereo partly shown) [Table 7-Compound 119] | 0.002 | > 11 |
|  | 0.0016 | 0.029 | 0.0022 | CN(C)C(=O)CN1CCN(c2ccc(-c3cnc4ccc(N5CCOCC5c5cccc(F)c5)nn34)cc2C#N)CC1 (stereo not shown) [Table 2-Compound 8] | 0.0052 | > 10 |
|  | 0.021 | 0.0452 | 0.0149 | CCN(CC)CCNc1cccc(-c2cnc3ccc(N4CCCC4c4cccc(F)c4)nn23)n1 (stereo not shown) [Table 4-Compound 14] | 0.0308 | 5.72 |
|  | 0.018 | 0.031 | 0.013 | OCc1cccc(-c2cnc3ccc(N4CCCC4c4cccc(F)c4)nn23)n1 (stereo not shown) [Table 7-Compound 2] | 0.026 | > 10 |
|  | 0.013 | 0.02 | 0.015 | CC(F)C(=O)N(C)C1CCN(c2cccc(-c3cnc4ccc(N5CCCC5c5cccc(F)c5)nn34)n2)C1 (stereo not shown) [Table 7-Compound 201] | 0.01 | > 11 |
|  | 0.0068 | 0.0052 | 0.0015 | OCC(O)CNc1cccc(-c2cnc3ccc(N4CCCC4c4cccc(F)c4)nn23)n1 (stereo not shown) [Table 4-Compound 16] | 0.0022 | > 10 |
|  | 0.0007 | 0.0022 | 0.0004 | O=C1CN(c2cccc(-c3cnc4ccc(N5CCCC5c5cccc(F)c5)nn34)n2)CCN1 (stereo not shown) [Table 4-Compound 5] | 0.0012 | > 10 |

— patent US8507488B2, “Fused nitrogen containing heterocycles and compositions thereof as kinase inhibitors” (IRM LLC, priority 2008, dated 2013)
